Measured values from patent US4791215A, “Derivatives of glutamic acid and aspartic acid” (priority 1984, dated 1988).
“And” between values parts separate entries of the source, which are not always exact repeats. Identical values can stand only once.

How the values were obtained:
[1] = tested on: morphine analgesia; assay: Increase in analgesia of morphine, Tail Flick Test (Experiment 1); assay type: in vivo, rats; details: for percentage variation of latency of pain sensation / M (10-90) ± SE, mean percentage variation of latency: compound 10 mg/kg i.p. + morphine 2 mg/kg; for M (10-90) ± SE, mean percentage variation of latency: mean 10-90 min; for Power ratio with respect to morphine alone: rat, in vivo
Summary of the method: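 Non-fasted male rats (150-200 g); a tail point is exposed to a 75 °C heat source and latency to tail movement recorded, 8 s cut-off. Readings taken before and 10, 20, 30, 45, 60 and 90 min after analgesic treatment; percentage variation calculated per animal.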

[2] = tested on: CCK-8 induced contraction of guinea pig gall bladder; assay: Anti-CCK activity on gall bladder strips in vitro; details: CCK-8 10 ng/ml
Summary of the method: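 Longitudinal guinea pig gall bladder strips in Krebs at 32 °C, gassed with O2/CO2 95:5, were contracted with 10 ng/ml CCK-8. Isometric force was recorded across several compound concentrations, and ED50 was taken as the μg/ml concentration antagonising 50% of the CCK contraction.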

[3] = tested on: intestinal transit of carbon; assay: Anti-spastic activity, vegetable carbon intestinal transit test; assay type: in vivo, mice; details: Mus musculus, ip; read-out: antispastic activity ED50 (dose reducing intestinal transit of carbon by 50%)
Source text: The anti-spastic activity which the present compounds exert on the entire digestive system is also notable. Measured in mice with the vegetable carbon test (rate of transit through the stomach and the intestine), this activity is illustrated in the following table.
claimed administered intraperitoneally in mice. Values
expressed as the ED 50 in mg/kg, that is the dose which
reduces the intestinal transit of carbon by 50%

[4] = tested on: biliary flow; assay: Biliary flow (choleretic activity); assay type: in vivo, rat
Procedure: The following experiment was carried out: a cannula was inserted in the bile duct of a rat anaesthetised with urethane, together with a small needle connected to a polythene tube, and the bile liquid was thus collected. The collection was carried out for one hour before the intravenous administration of the tested compounds and for a further two hours after administration, the samples collected at 30 minute intervals being weighed.
In order to prevent possible dehydration of the animals, 0.5 ml of physiological solution was administered at 30 minute intervals up to a total of 3 ml.

[5] = tested on: CCK-8 induced contraction of guinea pig gall bladder; assay: Anti-CCK-8 activity on gall bladders in situ; assay type: in vivo
Procedure: In order to confirm the evidence of the studies in vitro several of the more interesting compounds were tested in vivo on guinea pig gall baldders in situ.
The method used is that described by Ljungberg (Svensk. Farm. Tidskr. 68, 351-354, 1964).
Guinea pigs having a weight of about 400 g, anaesthetised with urethane, were used; the substances under examination were administered intraveneously into the jugular vein.
The responses of the gall bladders to the substances under test were detected by means of a force transducer and recorded by means of a microdynamometer. The optimum contracting dose was chosen as 10 ng/kg of CCK-8. The antagonist compounds tested were administered in increasing doses so as to enable the calculation of an ED50 value, that is in the dose (in mg/kg i.v.) capable of inhibiting 50% of the contracting effect of 10 ng/kg i.v. of CCK-8.
The results obtained are given in Table 7 below, which gives the doses used and the effects obtained expressed as a percentage inhibition of the contracting effect of CCK-8 as well as the ED50 found.

| SMILES | percentage variation of latency of pain sensation ([1]; 10') [%] | percentage variation of latency of pain sensation ([1]; 20') [%] | percentage variation of latency of pain sensation ([1]; 30') [%] | percentage variation of latency of pain sensation ([1]; 45') [%] | percentage variation of latency of pain sensation ([1]; 60') [%] | percentage variation of latency of pain sensation ([1]; 90') [%] | M (10-90) ± SE, mean percentage variation of latency [1] [%] | Power ratio with respect to morphine alone [1] | ED50 (concentration antagonising 50% of contracting effect of CCK-8) [2] [µg/mL] | ED50 [3] [mg/kg] | % increase in biliary flow with respect to controls ([4]; 12.5 mg/kg i.v.) | % increase in biliary flow with respect to controls ([4]; 25 mg/kg i.v.) | % increase in biliary flow with respect to controls ([4]; 50 mg/kg i.v.) | ED50 ([4]; Rattus norvegicus, iv, average over 2 hours, read-out: ED50 (dose causing 50% increase in biliary flow)) [mg/kg] | percentage inhibition of contracting effect of CCK-8 ([5]; 30 mg/kg i.v., single experiments) | ED50 ([5]; Cavia porcellus, iv, CCK-8 10 ng/kg i.v., read-out: ED50 (inhibition of 50% of contracting effect of CCK-8)) [mg/kg] |
| --- | --- | --- | --- | --- | --- | --- | --- | --- | --- | --- | --- | --- | --- | --- | --- | --- |
| CCCCN(CCCC)C(=O)CCC(NC(=O)c1cccc(C#N)c1)C(=O)O [Compound D-5] | 72.2 | 92.5 ± 7.0 | 95.3 ± 5.0 | 96.0 ± 4.0 | 74.3 ± 11.0 | 75.5 | 84.3 ± 11.4 | 2.83 | > 200 | 74.9 | – | – | – | – | – | – |
| CCCCN(CCCC)C(=O)C(CCC(=O)O)NC(=O)c1ccc(I)cc1 (centres unmarked) [Compound C-27] | 52.3 ± 13.0 | 81.4 | 90.2 ± 7.0 | 85.9 ± 10.0 | 60.3 ± 15.0 | 50.3 ± 13.0 | 70.0 ± 17.8 | 2.35 | 10.2 | 40.3 | – | – | – | – | – | – |
| CCCCc1ccc(C(=O)NC(CCC(=O)O)C(=O)N(CCC)CCC)cc1 (centres unmarked) [Compound C-37] | 27.6 ± 13 | 45.8 ± 18 | 55.0 ± 16 | 51.1 | 23.4 ± 21 | 12.4 ± 13 | 35.9 ± 17 | 1.20 | – | 160 | – | – | – | – | – | – |
| N#Cc1cccc(C(=O)NC(CCC(=O)N2CCCCC2)C(=O)O)c1 [Compound D-11] | 25.3 ± 7.0 | 68.3 | 74.8 ± 18.0 | 82.8 ± 17.0 | 86.2 ± 14.0 | 77.5 ± 13.0 | 69.1 | 2.32 | > 200 | – | +33.7% | +80.0% | +118.8% | 18.5 | – | – |
| CCCN(CCC)C(=O)C(CCC(=O)O)NC(=O)c1cc(C)cc(C)c1 (centres unmarked) [Compound C-31] | 28.9 ± 17 | 43.3 ± 25 | 54.7 ± 22 | 68.0 ± 22 | 57.4 ± 16 | 49.5 ± 19 | 50.4 ± 14 | 1.69 | 22.9 | – | – | – | – | – | 82.1% and 92.5% and 58.7% | 16.3 |
